In ChEMBL document CHEMBL5113511, “Discovery of Small-Molecule Degraders of the CDK9-Cyclin T1 Complex for Targeting Transcriptional Addiction in Prostate Cancer” (J Med Chem, 2022) one finds DC50, Activity and IC50 data, which are given here for 1 compound.

In assay [1] the target is T1, Cyclin-dependent kinase 9 (Homo sapiens, UniProt P50750). Kind of assay: Induction of HyT-mediated degradation of CDK9 in human 22Rv1 cells incubated for 24 hrs by immunoblot analysis. In kind it is cell-based.
T1 sequence (P50750 whole entry): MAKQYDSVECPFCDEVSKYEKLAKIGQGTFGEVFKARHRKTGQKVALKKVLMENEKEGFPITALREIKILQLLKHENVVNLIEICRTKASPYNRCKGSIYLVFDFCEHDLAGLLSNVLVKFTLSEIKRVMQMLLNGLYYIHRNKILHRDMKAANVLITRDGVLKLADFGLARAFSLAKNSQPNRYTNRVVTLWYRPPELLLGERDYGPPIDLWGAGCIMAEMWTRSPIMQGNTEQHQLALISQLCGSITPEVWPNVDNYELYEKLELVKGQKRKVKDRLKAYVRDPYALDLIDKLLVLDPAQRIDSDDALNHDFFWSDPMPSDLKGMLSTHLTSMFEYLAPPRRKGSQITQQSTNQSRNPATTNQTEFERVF
For assay [2], the target named is T2, CDK9/cyclin T1 (Homo sapiens) (UniProt O60563+P50750). Kind of assay: Induction of CDK9/Cyclin T1 degradation in human 22Rv1 cells assessed as downregulation of c-Myc protein expression at 0.3 to 3 uM measured after 24 hrs by immunoblot analysis. It is filed as cell-based. Particulars: dose 0.3-3 µM.
The target of assay [3] is T1, Cyclin-dependent kinase 9. Kind of assay: Induction of HyT-mediated degradation of CDK9 in human 22Rv1 cells at 3 uM measured for 36 hrs by DIA-based proteomics analysis. It is filed as cell-based.
For assay [4], the target named is Cyclin-dependent kinase 6 (Homo sapiens) (UniProt Q00534). Nature of the assay: Induction of CDK6 degradation in human 22Rv1 cells assessed as downregulation of CDK6 level at 3 uM measured after 12 hrs by DIA-based proteomics analysis. It is filed as cell-based.
Cyclin-dependent kinase 6 (Homo sapiens), sequence (Q00534 whole entry): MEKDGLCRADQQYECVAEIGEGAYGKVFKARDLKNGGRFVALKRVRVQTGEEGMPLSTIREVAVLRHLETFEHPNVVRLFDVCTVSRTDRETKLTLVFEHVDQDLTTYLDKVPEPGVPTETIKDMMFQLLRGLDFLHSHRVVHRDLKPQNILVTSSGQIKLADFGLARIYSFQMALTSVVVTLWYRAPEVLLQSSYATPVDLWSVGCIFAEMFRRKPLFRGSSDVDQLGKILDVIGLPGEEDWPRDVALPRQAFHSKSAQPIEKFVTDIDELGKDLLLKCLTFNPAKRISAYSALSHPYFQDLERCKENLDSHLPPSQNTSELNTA
Another assay deals with CWR22R. Kind of assay: Antiproliferative activity against human 22Rv1 cells assessed as reduction in cell viability measured after 5 days by CellTiter-Glo assay. It is filed as functional, cell-based. Particulars: 22Rv1, 120 h.
Assay [5] has as its target T2, CDK9/cyclin T1 (Homo sapiens). Kind of assay: Induction of CDK9/Cyclin T1 degradation in human 22Rv1 cells assessed as downregulation of AKR1C3 gene expression at 2 uM incubated for 24 hrs by RNA-Seq based analysis. It is filed as cell-based.
Assay [6] shares this target. Nature of the assay: Induction of CDK9/Cyclin T1 degradation in human 22Rv1 cells assessed as downregulation of WNT2 gene expression at 2 uM incubated for 24 hrs by RNA-Seq based analysis. In kind it is cell-based.

pIC50: −log10 of the molar value. Calls of active or inactive are those of the source. The calls are words filed in the database; no cut-off is given here.

The compound `CC(C)[C@@H]1CC[C@@H](C)C[C@H]1OCC(=O)NCCS(=O)(=O)N1CCC(C(=O)Nc2ncc(SCc3ncc(C(C)(C)C)o3)s2)CC1` showed a DC50 in assay [1] of 662 nM. Also, the outcome in assay [2], in assay [3], in assay [4], in assay [5] and in assay [6] was Active. Also, in the assay with CWR22R, the pIC50 is 7.02.
